# Data published in patent US10966937B2, “Compositions and methods for delivery of polyunsaturated fatty acid derivatives and analogs” (Cytometix, Inc., priority 2015, dated 2021).
# Experiments:
# [1] = Plasma exposure of CMX-020 from enterically coated softgels with DHA TG vehicle; type: in vivo, male cynomolgus monkey
# Description: In FIG. 5, groups of male cynomolgus monkey were administered CMX-020 (40 mg total dose) in enterically coated softgels at 10, 5 and 2.5% (w/w) using high purity DHA in triglyceride form as the delivery vehicle. CMX-020 was measured through time in plasma to determine its concentrations. FIG. 5 illustrates that the systemic exposure of CMX-020 in DHA TG at various concentrations provides suitable systemic exposure for more than 12 hours. In this study, the optimal concentration was 5% displaying an absolute bioavailability of 20%.
# [2] = tested on: post-operative pain model; assay: Post-operative pain model (hindpaw incision), mechanical allodynia (Von Frey filament); type: in vivo, male Sprague Dawley rats; conditions: CMX-020 intraduodenally at various doses in DHA TG, 3 hours post-surgery
# Description: In FIG. 7, groups of male Sprague Dawley rats were administered CMX-020 intraduodenally at various doses using high purity DHA in triglyceride form as the delivery vehicle. CMX-020 was measured in plasma to determine its concentrations immediately after the efficacy endpoint. Prior to administration, the rat's hindpaw was surgically incised and sutured. 3 hours post-surgery the rats were subjected to mechanical allodynia (Von Frey filament) assessment to quantify the analgesic effect of CMX-020 (% MPE=post drug threshold−baseline threshold/cutoff threshold−baseline threshold×100).
# [3] = tested on: rodent model of fibromyalgia; assay: Rodent model of fibromyalgia (reserpine), mechanical allodynia, CMX-020 and Pregabalin; type: in vivo, male Sprague Dawley rats
# [4] = tested on: rodent model of osteoarthritis; assay: Rodent model of osteoarthritis (MIA), mechanical allodynia, CMX-020 and Tramadol; type: in vivo, male Sprague Dawley rats
# [5] = tested on: rodent model of spinal nerve ligation; assay: Spinal nerve ligation model, mechanical allodynia, CMX-020 and Duloxetine; type: in vivo, male Sprague Dawley rats
# Description: In FIGS. 14 and 15, groups of male Sprague Dawley rats underwent a spinal nerve ligation method of the left L5 and L6 spinal nerves, inducing a model of peripheral neuropathic pain. 1 weeks later treatment with CMX-020 and Duloxetine were administered either alone or in combination at various combinational doses and efficacy was tested using mechanical allodynia pain thresholds (Von Frey Filaments, up-down method). The method of Chou-Talalay and CompuSyn computer software were used to automate analysis of dose effect data for each individual drug and their combination. […] The fold reduction of Duloxetine in combination with CMX-020 is greater than 2-fold in efficacy ranges at and greater than 20% (FIG. 15).
# [6] = tested on: rodent model of Chemotherapeutic induced pain; assay: Chemotherapeutic (paclitaxel) induced pain model, mechanical allodynia, CMX-020 and Duloxetine; type: in vivo, male Sprague Dawley rats
# Description: In FIGS. 16 and 17, groups of male Sprague Dawley rats received four daily consecutive injections of paclitaxel (1 mg/kg, ip), followed by a second series of four daily injections one week after the first injection, inducing a model of chemotherapeutic-induced peripheral neuropathy Animals were tested 2-3 days after receiving the last injection of paclitaxel with treatment of CMX-020 and Duloxetine administered either alone or in combination at various combinational doses and efficacy was tested using mechanical allodynia pain thresholds (Von Frey Filaments, up-down method). The method of Chou-Talalay and CompuSyn computer software were used to automate analysis of dose effect data for each individual drug and their combination. […] The fold reduction of Duloxetine in combination with CMX-020 is greater than 2-fold in efficacy ranges at and greater than 20% (FIG. 17).
# [7] = clinical; conditions: both, human, in vivo, po
# [8] = efficacy ranges at and greater than 20%
compound,measurement,setting,value
CCCCCC(=O)N(CC/C=C\C/C=C\C/C=C\CCCC(=O)NC1CC1)C(C)C [CMX-020],duration of suitable systemic exposure,"[1]; CMX-020 40 mg total dose at 10, 5 and 2.5% (w/w) in DHA TG, monkey",more than 12 hours
same,bioavailability,"[1]; male, cynomolgus monkey, plasma, oral, CMX-020 40 mg total dose, 5% (w/w) in DHA TG, read-out: absolute bioavailability",20%
same,relation of systemic exposure to analgesic efficacy (% MPE),[2],positively correlates
same,analgesic effect of the combinational therapy (isobologram),[3]; co-administered with Pregabalin,greater than a simple additive effect
same,analgesic effect of the combinational therapy (isobologram),"[4]; in combination with Tramadol, 2 weeks after MIA",greater than a simple additive effect
same,analgesic effect of the combinational therapy (isobologram),[5]; in combination with Duloxetine,greater than a simple additive effect
same,analgesic effect of the combinational therapy (isobologram),[6]; in combination with Duloxetine,greater than a simple additive effect
same,Tmax,[7],3.5 to 5.5 h
"CNCC[C@H](Oc1cccc2ccccc12)c1cccs1 [Duloxetine, reference compound]",fold reduction of Duloxetine in combination with CMX-020,[5]; [8],greater than 2 fold
same,fold reduction of Duloxetine in combination with CMX-020,[6]; [8],greater than 2 fold
"CC(C)C[C@H](CN)CC(=O)O [Pregabalin, reference compound]",fold reduction of Pregabalin in combination with CMX-020,[3]; efficacy ranges at and greater than 35%,greater than 2 fold
"COc1cccc(C2(O)CCCCC2CN(C)C)c1 (stereo not drawn) [Tramadol, reference compound]",fold reduction of Tramadol in combination with CMX-020,[4]; efficacy ranges at and greater than 10%,greater than 2 fold
